The source of these data is patent US10189795B2, “Aryl amine substituted quinoxaline used as anticancer drugs” (priority 2014, dated 2019).

The term viability denotes a read-out of living cells in per cent, often relative to untreated cells. Lower therefore signals a greater loss of cells. Usually IC50 stands for the concentration that inhibits the measured activity by half. Read a high IC50 as weaker potency in that assay.

For one series, the system named is H520. Description: cell viability of H520 cells, 1 and 10 uM. Format: cell-based. As to conditions: Homo sapiens, NCI-H520.
A short description of a further series: BA (%), Table 5. Particulars: in vivo.
Another series has as its system PP2A. The series is described as follows: PP2A phosphatase activity (malachite green-phosphate assay in cell lysate). Format: cell-based.
Another series has as its system Hep3B. Description: MTT cell viability, Hep3B. In kind it is cell-based. As to conditions: Homo sapiens, 48 h. As for the experimental part: (§1) The Sk-Hep1, PLC/PRF/5 (PLC) and Hep3B cell lines were obtained from American Type Culture Collection (ATCC; Manassas, Va., USA). The Huh-7 HCC cell line was obtained from the Health Science Research Resources Bank (HSRRB; Osaka, Japan; JCRB0403). Cells were maintained in DMEM supplemented with 10% FBS in a 37° C. humidified incubator in an atmosphere of 5% CO^2 in air. Other cell lines, including non-small cell lung cancer cells e.g. H358, H460 and A549 and human squamous cell carcinoma cells e.g. NCI-1703, H2170, H520, SW900 and NCI—H226 all obtained from American Type Culture Collection (Manassas, Va.) were also provided for the assays describes below.
(§2) The present invention compared the antitumor activities of an erlotinib derivative of the present invention, TD-52, and erlotinib on HCC cells. The present invention used MTT assay to evaluate cell viability after exposure to TD-52 or erlotinib for 48 h. […] To further evaluate the cell apoptosis induced by the treatments, all four cell lines were treated with TD-52 and erlotinib at the indicated concentration for 24 h and the percentages of sub-G1 cells were determined by flow cytometry (FIG. 1B).

The test system of another series is PLC5. Description: MTT cell viability, PLC5. In kind it is cell-based. As to conditions: 48 h. As for the experimental part:
as §1, §2

A further series concerns Sk-Hep1. Description: MTT cell viability, Sk-Hep1. In kind it is cell-based. Particulars: Homo sapiens, 48 h. As for the experimental part:
as §1, §2

The next series relates to PLC5 xenograft tumor. The series is described as follows: PLC5 xenograft tumor growth in nude mice. Format: in vivo. As for the experimental part: Male NCr athymic nude mice (5-7 weeks of age) were obtained from the National Laboratory Animal Center (Taipei, Taiwan). All experimental procedures using these mice were performed in accordance with protocols approved by the Institutional Laboratory Animal Care and Use Committee of National Taiwan University. Each mouse was inoculated subcutaneously in the dorsal flank with 1×10^6 PLC5 or A549 cells suspended in serum-free medium containing 50% Matrigel (BD Biosciences, Bedford, Mass., USA). When tumors reached 100-150 mm^3, mice were treated with sorafenib, the erlotinib derivatives of the present invention, or vehicle (control) at 10 mg/kg/day daily by oral gavage for 4 weeks.
The present invention used a PLC5 xenograft mouse model to assess the effects of TD-52 in vivo. The present choose sorafenib as one of the comparative treatment arms. Tumor-bearing mice were administered sorafenib (10 mg/kg), TD-52 (10 mg/kg) or DMSO (vehicle, as control). […] The present invention further examined the xenografted tumors taken from mice receiving TD-52 and vehicle to confirm the molecular events in the tumor tissue. […] When PP2A activity was enhanced by TD-52, Akt was dephosphorylated, promoting HCC cell apoptosis.

For `C#Cc1cccc(Nc2nc3ccccc3nc2Nc2cccc(C#C)c2)c1` [TD52, N^2,N^3-bis(3-ethynylphenyl)quinoxaline-2,3-diamine], in the series on H520 (1 uM), the viability at 1 µM stood at 95.8 ± 1.26%. For the same compound, the viability at 10 µM in the series with H520 (10 uM) came to 14 ± 0.14%. In addition, the “BA (%)” value in “BA (%), Table 5” came out at 87%. In addition, the “minimal concentration for PP2A activation” value with PP2A fell in the range of 100 to 200 nM. Moreover, in the series on PP2A (1 μL (printed) TD-52, 24 hr), the “PP2A activity in HCC cells” value is reported as “enhanced”. Also, the half-inhibitory concentration (IC50) in the series with Hep3B was 900 nM; in the series on PLC5, 800 nM; in the series on Sk-Hep1, 1200 nM. In the series with PLC5 xenograft tumor (10 mg/kg each, P<0.05), the “inhibition of in vivo tumor growth in comparison with sorafenib” value was “more potent inhibition of in vivo tumor growth”. In addition, the tumor size entry in the series with PLC5 xenograft tumor (10 mg/kg, oral gavage daily, 4 weeks, vs control arm) is reported as “smaller than those of the control arm”. Besides, in the series with PLC5 xenograft tumor (TD-52 vs vehicle), the “PP2A activity in xenograft tumor samples” value is reported as “enhanced PP2A activity”.
